Test results: ChEMBL document CHEMBL2439989 (Bioorg Med Chem Lett, 2013)

Legend:
[1] = biological target: T1, Adrenergic receptor alpha-1 (Rattus norvegicus, UniProt P15823+P23944+P43140); experiment: Displacement of [3H]-prazosin from alpha1 adrenergic receptor in rat cerebral cortex membranes after 50 mins; assay type: cell membranes, Membrane
T1 sequence (P15823 whole entry): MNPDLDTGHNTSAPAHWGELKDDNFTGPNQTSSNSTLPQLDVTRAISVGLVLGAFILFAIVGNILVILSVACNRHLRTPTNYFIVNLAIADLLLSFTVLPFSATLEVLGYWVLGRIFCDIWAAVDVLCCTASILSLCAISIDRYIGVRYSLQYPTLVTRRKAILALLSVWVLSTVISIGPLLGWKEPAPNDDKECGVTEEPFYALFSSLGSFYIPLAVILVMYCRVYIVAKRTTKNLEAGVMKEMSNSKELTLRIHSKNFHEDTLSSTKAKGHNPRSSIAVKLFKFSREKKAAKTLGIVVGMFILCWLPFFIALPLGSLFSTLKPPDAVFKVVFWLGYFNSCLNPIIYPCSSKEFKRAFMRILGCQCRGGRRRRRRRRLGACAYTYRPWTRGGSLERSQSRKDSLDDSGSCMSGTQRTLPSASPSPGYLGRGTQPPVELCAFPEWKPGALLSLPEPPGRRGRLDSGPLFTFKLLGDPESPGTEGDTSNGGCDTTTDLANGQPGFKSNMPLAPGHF
T1 sequence (P23944 whole entry): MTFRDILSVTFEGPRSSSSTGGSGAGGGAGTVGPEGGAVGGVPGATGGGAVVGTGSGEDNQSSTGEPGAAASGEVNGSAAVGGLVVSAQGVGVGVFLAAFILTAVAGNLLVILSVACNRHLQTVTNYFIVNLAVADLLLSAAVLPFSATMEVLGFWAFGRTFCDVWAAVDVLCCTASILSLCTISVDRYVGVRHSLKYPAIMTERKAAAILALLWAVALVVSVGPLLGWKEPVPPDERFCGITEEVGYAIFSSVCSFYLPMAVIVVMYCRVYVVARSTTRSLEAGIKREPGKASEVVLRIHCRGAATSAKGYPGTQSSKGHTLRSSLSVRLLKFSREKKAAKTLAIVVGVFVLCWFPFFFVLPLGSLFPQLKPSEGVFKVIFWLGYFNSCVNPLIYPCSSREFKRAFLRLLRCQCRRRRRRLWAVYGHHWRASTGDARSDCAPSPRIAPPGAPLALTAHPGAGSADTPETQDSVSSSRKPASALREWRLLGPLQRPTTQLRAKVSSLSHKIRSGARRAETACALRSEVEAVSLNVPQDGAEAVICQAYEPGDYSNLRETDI
T1 sequence (P43140 whole entry): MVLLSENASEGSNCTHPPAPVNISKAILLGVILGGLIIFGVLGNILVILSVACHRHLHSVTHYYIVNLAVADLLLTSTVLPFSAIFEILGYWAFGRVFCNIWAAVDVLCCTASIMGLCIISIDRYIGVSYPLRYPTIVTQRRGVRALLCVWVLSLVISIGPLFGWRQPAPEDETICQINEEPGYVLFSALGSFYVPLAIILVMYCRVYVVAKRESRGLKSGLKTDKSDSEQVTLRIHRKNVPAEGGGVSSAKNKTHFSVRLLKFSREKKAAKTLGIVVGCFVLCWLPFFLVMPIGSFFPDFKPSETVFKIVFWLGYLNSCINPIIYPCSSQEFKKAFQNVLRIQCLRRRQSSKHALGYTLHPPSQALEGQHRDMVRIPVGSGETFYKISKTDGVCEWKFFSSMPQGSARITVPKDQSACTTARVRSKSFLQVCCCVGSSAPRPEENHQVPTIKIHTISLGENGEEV

[2] = (§1) Binding affinity to sigma 2 receptor (unknown origin) by radioligand binding assay; parameters: species or system Homo sapiens
[3] = Half life in mouse brain at 10 to 30 mg/kg, ip; assay type: ADME, organism-based; parameters: dose 10-30 mg/kg, route intraperitoneal
[4] = Metabolic stability in rat liver S9 fractions at 10 uM after 30 mins by RP-HPLC analysis; assay type: ADME, subcellular, Liver S9 fraction; conditions: read-out: Stability
[5] = biological target: Sigma non-opioid intracellular receptor 1 (Homo sapiens, UniProt Q99720); experiment: Binding affinity to sigma 1 receptor (unknown origin) by radioligand binding assay; conditions: for inhibition: concentration not given here
[6] = biological target: T2, 5-hydroxytryptamine receptor 1A (Homo sapiens, UniProt P08908); experiment: Displacement of [3H]-8-OH-DPAT from human 5HT1A receptor after […]
T2 sequence (P08908 whole entry): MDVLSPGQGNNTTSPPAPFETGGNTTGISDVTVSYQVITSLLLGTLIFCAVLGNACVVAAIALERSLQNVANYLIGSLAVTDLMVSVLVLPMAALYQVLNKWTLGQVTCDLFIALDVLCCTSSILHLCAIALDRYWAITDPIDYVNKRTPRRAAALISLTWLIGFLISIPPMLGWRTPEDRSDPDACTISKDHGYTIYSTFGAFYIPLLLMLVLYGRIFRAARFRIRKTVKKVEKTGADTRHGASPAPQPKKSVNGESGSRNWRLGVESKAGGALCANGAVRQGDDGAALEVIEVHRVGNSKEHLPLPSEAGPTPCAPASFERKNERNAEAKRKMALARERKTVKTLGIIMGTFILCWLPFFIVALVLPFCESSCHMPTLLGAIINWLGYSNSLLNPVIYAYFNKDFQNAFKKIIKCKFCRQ

[7] = biological target: 5-hydroxytryptamine receptor 7 (Homo sapiens, UniProt P34969); experiment: Displacement of [3H]5-CT from human 5HT7A receptor expressed in HEK293 cells after 60 mins; assay type: cell-based
[8] = biological target: T2, 5-hydroxytryptamine receptor 1A; experiment: Displacement of [3H]-8-OH-DPAT from human recombinant 5HT1A receptor expressed in HEK293-EBNA cells after 120 mins; assay type: cell-based
Homo sapiens = species on record: Homo sapiens; experiment: as §1; conditions: concentration not given here
[9] = Efflux ratio of apparent permeability from basolateral to apical side over apical to basolateral side in human Caco2 cells at 1 to 100 uM after 120 mins by UV spectroscopic analysis; assay type: ADME, cell-based; conditions: Caco-2
Brain = experiment: Cmax in brain of CD1 mouse assessed as 1-[2-(4-methoxyphenyl)phenyl]piperazine at 10 mg/kg, ip qd after 30 mins by RP-HPLC analysis; assay type: ADME, organism-based; parameters: dose 10 mg/kg, route intraperitoneal; conditions: in vivo, 0.5 h
[10] = Cmax in plasma of CD1 mouse at 10 mg/kg, ip qd after 15 mins by RP-HPLC analysis; assay type: ADME, organism-based; parameters: dose 10 mg/kg, route intraperitoneal
Mus musculus = experiment: Elimination half life in CD1 mouse assessed as 1-[2-(4-methoxyphenyl)phenyl]piperazine at 10 mg/kg, ip qd by RP-HPLC analysis; assay type: ADME, organism-based; parameters: dose 10 mg/kg, route intraperitoneal; conditions: in vivo
[11] = Cmax in brain of CD1 mouse at 10 mg/kg, ip qd after 30 mins by RP-HPLC analysis; assay type: ADME, organism-based; parameters: dose 10 mg/kg, route intraperitoneal
[12] = Ratio of AUC from brain to plasma of CD1 mouse at 10 mg/kg, ip qd measured within 120 mins by RP-HPLC analysis; assay type: ADME, organism-based; parameters: dose 10 mg/kg, route intraperitoneal; conditions: read-out: Ratio AUC
[13] = Elimination half life in CD1 mouse at 10 mg/kg, ip qd by RP-HPLC analysis; assay type: ADME, organism-based; parameters: dose 10 mg/kg, route intraperitoneal; conditions: in vivo, read-out: beta t1/2

Sequence of Sigma non-opioid intracellular receptor 1 (Q99720 whole entry): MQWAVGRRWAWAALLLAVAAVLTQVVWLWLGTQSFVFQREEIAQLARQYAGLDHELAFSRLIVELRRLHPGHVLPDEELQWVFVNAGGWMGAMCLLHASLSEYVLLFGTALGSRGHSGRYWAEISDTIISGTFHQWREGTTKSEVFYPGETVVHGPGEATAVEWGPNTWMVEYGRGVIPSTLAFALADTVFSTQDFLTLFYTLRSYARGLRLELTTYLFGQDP
Sequence of 5-hydroxytryptamine receptor 7 (P34969 whole entry): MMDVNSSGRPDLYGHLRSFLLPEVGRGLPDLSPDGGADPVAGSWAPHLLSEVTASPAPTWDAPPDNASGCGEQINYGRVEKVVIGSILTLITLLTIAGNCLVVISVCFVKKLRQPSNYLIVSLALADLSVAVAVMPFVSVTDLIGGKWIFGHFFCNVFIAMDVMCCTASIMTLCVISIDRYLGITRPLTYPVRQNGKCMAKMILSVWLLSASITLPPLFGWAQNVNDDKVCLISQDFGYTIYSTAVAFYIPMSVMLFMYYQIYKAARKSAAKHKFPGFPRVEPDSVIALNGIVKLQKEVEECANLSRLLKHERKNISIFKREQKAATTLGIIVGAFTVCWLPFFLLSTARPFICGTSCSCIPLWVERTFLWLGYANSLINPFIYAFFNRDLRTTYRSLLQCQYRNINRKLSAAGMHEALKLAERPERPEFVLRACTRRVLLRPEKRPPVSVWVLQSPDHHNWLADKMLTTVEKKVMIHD

SMILES	Ki [1]	Ki [2]	half-life [3]	remaining at 0.5 h, 10 µM [4]	Ki [5]	inhibition [5]	Ki [6]	Ki [7]	Ki [8]	inhibition (Homo sapiens)	efflux ratio at 2 h, up to 100 µM [9]	Cmax (Brain)	Cmax [10]	beta t1/2 (Mus musculus)	Cmax [11]	Kp at 2 h [12]	half-life [13]
N#Cc1ccc(CNC(=O)CCCCCN2CCN(c3ccccc3-c3ccccc3)CC2)cc1	22.6 nM	4200 nM	1.15 h	40%	> 5000 nM	48%	379 nM	–	–	–	–	–	–	–	–	–	–
COc1ccc(-c2ccccc2N2CCN(CCOCCC(=O)NCc3ccncc3)CC2)cc1	193 nM	> 10000 nM	–	82%	> 5000 nM	33%	–	18 nM	877 nM	45%	–	–	–	–	–	–	–
COc1ccc(-c2ccccc2N2CCN(CCOCCC(=O)NCc3ccccn3)CC2)cc1	295 nM	> 10000 nM	–	78%	> 5000 nM	27%	–	23.5 nM	918 nM	39%	–	–	–	–	–	–	–
COc1ccc(-c2ccccc2N2CCN(CCCCCC(=O)NCc3ccncc3)CC2)cc1	30.5 nM	356 nM	–	76%	> 5000 nM	30%	–	11.2 nM	239 nM	–	–	–	–	–	–	–	–
COc1ccc(-c2ccccc2N2CCN(CCCCCC(=O)NCc3cccnc3)CC2)cc1	38.3 nM	638 nM	–	85%	–	–	–	12.7 nM	80 nM	–	4.5	–	–	–	–	–	–
COc1ccc(-c2ccccc2N2CCN(CCOCCC(=O)NCc3cccnc3)CC2)cc1	393 nM	> 10000 nM	–	82%	> 5000 nM	36%	–	23.8 nM	1270 nM	38%	3.3	484 ng/g	702 ng/mL	2 h	308 ng/g	1.3	0.733 h
COc1ccc(-c2ccccc2N2CCN(CCCCCC(=O)NCc3ccccn3)CC2)cc1	11.4 nM	3480 nM	–	69%	–	–	–	15.2 nM	35 nM	–	–	–	–	–	–	–	–
